For the test, the system named is clinical strains of Mycobacterium tuberculosis. Description: Reference phenotypic test of antibiotic sensitivity in solid medium. It counts as cell-based. The note with it: Mycobacterium tuberculosis, read-out: minimum inhibitory concentration.

`CO[C@H]1/C=C/O[C@@]2(C)Oc3c(C)c(O)c4c(O)c(c(/C=N/N5CCN(C)CC5)c(O)c4c3C2=O)NC(=O)/C(C)=C\C=C\[C@H](C)[C@H](O)[C@@H](C)[C@@H](O)[C@@H](C)[C@H](OC(C)=O)[C@@H]1C` [rifampicin]: the MIC is above 1 µg/mL.

(Values after patent US8841087B2 (priority 2008, dated 2014).)
